Data reported in US6245521A, “Assay for evaluating the affinity of compounds to the glutamate GluR5 receptor” (Eli Lilly and Company, priority 1999, dated 2001).

Legend:
[1] = biological target: T1, human GluR5 (Homo sapiens, UniProt P39086); assay: Electrophysiological (patch-clamp) functional studies on transfected HEK293 cells; assay type: cell-based
T1 construct: expressed in transfected cells; host or cells: HEK293
Description: (§1) Activity of compounds acting at the kainate receptor, GluR5, can be determined by radiolabeled ligand binding studies at the cloned and expressed human GluR5 receptor (Korczak et al., 1994, Recept. Channels 3; 41-49), and by whole cell voltage clamp electrophysiological recordings of currents in acutely isolated rat dorsal root ganglion neurons (Bleakman et al., 1996, Mol. Pharmacol. 49; 581-585). The selectivity of compounds acting at GluR5 receptors is determined by measurement of activity at other AMPA and kainate receptors including receptor-ligand binding studies and whole-cell voltage clamp electrophysiological recordings of functional activity at human GluR1-GluR4 receptors (Fletcher et al., 1995, Recept. Channels 3; 21-31), at human GluR6 receptors (Hoo et al., Recept. Channels 2;327-338), at AMPA receptors in acutely isolated cerebellar Purkinje neurons (Bleakman et al., 1996, Mol. Pharmacol. 49; 581-585), and other tissues expressing AMPA receptors (Fletcher and Lodge, 1996, Pharmacol. Ther. 70; 65-89).
(§2) Functional studies were carried out on HEK293 cells stably transfected with human GluR receptors and on acutely isolated dorsal root ganglion neurons (DRG) using patch-clamp technology (Bleakman et al., 1996, Mol. Pharmacol., 49, 581-585).

[2] = biological target: T2, human GluR4 (Homo sapiens, UniProt P48058); assay: as above; assay type: cell-based; details: vs 100 mμ AMPA
T2 construct: expressed in transfected cells; host or cells: HEK293
T2 sequence (P48058 21-902): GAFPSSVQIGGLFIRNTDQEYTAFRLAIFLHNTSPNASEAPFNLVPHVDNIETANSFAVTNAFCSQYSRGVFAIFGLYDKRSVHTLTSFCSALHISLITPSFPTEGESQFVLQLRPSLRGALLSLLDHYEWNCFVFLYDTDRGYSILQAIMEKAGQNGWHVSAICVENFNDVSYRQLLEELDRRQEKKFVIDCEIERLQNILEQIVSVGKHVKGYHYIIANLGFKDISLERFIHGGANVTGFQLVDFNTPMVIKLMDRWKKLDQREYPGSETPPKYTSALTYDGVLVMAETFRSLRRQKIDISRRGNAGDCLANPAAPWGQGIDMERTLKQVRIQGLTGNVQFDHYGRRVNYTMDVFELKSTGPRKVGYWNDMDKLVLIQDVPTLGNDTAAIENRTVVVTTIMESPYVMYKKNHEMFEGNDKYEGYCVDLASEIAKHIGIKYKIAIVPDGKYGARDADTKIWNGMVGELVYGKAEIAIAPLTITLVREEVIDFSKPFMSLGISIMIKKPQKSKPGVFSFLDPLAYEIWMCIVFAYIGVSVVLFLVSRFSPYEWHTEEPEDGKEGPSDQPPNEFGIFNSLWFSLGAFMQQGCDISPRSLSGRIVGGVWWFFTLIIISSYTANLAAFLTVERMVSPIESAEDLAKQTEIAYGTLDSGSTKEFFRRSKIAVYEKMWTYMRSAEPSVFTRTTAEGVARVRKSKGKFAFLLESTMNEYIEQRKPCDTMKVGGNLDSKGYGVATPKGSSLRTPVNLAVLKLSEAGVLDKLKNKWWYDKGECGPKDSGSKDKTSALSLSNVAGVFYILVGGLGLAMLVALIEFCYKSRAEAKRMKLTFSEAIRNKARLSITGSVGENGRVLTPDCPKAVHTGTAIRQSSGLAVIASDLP
Description: as §1, §2

[3] = biological target: T3, human GluR2 (Homo sapiens, UniProt P42262); assay: as above; assay type: cell-based; details: vs 100 mμ AMPA
T3 construct: expressed in transfected cells; host or cells: HEK293
T3 sequence (P42262 25-883): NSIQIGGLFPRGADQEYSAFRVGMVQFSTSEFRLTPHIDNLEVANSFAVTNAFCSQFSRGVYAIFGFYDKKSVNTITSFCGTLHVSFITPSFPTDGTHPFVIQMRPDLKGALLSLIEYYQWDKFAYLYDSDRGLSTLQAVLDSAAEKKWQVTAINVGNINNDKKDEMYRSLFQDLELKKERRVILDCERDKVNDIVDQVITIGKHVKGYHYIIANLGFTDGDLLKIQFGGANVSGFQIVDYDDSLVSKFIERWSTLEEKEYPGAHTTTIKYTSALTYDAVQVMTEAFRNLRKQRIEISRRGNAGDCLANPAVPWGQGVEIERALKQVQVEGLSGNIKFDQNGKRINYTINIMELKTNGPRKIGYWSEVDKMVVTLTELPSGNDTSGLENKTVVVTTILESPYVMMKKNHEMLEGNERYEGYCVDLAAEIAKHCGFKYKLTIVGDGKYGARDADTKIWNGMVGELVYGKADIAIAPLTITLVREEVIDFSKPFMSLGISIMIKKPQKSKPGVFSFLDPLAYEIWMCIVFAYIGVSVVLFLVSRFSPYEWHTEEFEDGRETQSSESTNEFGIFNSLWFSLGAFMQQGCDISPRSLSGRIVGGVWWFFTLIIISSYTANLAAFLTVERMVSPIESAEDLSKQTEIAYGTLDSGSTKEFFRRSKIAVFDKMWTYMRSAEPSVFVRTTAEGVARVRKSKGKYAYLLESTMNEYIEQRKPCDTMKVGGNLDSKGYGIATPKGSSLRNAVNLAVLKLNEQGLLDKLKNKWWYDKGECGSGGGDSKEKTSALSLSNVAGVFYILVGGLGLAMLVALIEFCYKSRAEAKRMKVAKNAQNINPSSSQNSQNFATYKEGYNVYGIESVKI
Description: as §1, §2

[4] = system: dorsal root ganglion neurons (DRG); assay: Patch-clamp functional studies on acutely isolated dorsal root ganglion neurons; assay type: cell-based; details: Rattus norvegicus, Neuron, vs 30 mμ KA
Description: as §1
Functional studies were carried out on HEK293 cells stably transfected with human GluR receptors and on acutely isolated dorsal root ganglion neurons (DRG) using patch-clamp technology (Bleakman et al., 1996, Mol. Pharmacol., 49, 581-585). […]

[5] = biological target: T4, human GluR1 (Homo sapiens, UniProt P42261); assay: ATPA selectivity profile in binding studies, displacement of 3[H] AMPA; details: HEK293 cells stably transfected with human GluR1
T4 construct: expressed in transfected cells; host or cells: HEK293
T4 sequence (P42261 19-906): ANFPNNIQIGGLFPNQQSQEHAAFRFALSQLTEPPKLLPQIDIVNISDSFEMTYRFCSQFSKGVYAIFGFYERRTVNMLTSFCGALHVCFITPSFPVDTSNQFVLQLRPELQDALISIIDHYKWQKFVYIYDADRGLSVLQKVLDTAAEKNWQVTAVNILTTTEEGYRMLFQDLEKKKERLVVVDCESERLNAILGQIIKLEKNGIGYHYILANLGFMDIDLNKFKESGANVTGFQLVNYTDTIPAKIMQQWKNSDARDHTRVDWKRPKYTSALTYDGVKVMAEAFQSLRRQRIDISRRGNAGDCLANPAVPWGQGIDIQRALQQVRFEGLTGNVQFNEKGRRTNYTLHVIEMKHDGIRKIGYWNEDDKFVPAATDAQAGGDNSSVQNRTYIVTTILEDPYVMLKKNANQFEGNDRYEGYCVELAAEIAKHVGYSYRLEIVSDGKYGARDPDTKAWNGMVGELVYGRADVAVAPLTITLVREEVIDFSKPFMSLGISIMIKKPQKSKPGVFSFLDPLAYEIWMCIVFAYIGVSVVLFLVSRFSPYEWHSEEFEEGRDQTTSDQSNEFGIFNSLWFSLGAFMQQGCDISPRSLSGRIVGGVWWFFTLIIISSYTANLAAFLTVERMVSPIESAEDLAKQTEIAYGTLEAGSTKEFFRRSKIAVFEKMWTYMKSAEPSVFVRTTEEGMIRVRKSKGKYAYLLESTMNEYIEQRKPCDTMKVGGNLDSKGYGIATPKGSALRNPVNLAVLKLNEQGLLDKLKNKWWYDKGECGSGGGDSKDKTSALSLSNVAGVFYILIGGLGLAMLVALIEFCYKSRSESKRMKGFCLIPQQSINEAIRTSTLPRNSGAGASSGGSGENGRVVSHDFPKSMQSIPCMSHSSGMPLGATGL
Description: as §1
(§3) Cell lines (HEK293 cells) stably transfected with human GluR receptors were employed. Displacement of ^3 [H] AMPA by increasing concentrations of ATPA was used on GluR1-4-expressing cells and ^3 [H] kainate (KA) on GluR5, 6, 7 KA2-expressing cells. Estimated activity (Ki) in nM was as follows.

[6] = system: CA1 pyramidal neurons; assay: Electrophysiological test of synaptic transmission in the hippocampus; assay type: cell-based; details: ATPA 1 μM
From the text: As mentioned above, ATPA modulates synaptic transmission in the hippocampus. […] It is further believed that such selective modulation of GluR5 is likely to show benefits in the treatment of cognitive function.

[7] = biological target: T1, human GluR5; assay: ATPA selectivity profile in binding studies, displacement of 3[H] kainate
Description: as §1
(§4) Cell lines (HEK293 cells) stably transfected with human GluR receptors were employed. Displacement of ^3 [H] AMPA by increasing concentrations of ATPA was used on GluR1-4-expressing cells and ^3 [H] kainate (KA) on GluR5, 6, 7 KA2-expressing cells.

[8] = biological target: T5, human GluR7 (Homo sapiens, UniProt Q13003); assay: as above; details: HEK293 cells stably transfected with human GluR7
T5 construct: expressed in transfected cells; host or cells: HEK293
Description: as §1, §3

[9] = biological target: T6, human GluR6 (Homo sapiens, UniProt Q13002); assay: as above; details: HEK293 cells stably transfected with human GluR6
T6 construct: expressed in transfected cells; host or cells: HEK293
T6 sequence (Q13002 32-908): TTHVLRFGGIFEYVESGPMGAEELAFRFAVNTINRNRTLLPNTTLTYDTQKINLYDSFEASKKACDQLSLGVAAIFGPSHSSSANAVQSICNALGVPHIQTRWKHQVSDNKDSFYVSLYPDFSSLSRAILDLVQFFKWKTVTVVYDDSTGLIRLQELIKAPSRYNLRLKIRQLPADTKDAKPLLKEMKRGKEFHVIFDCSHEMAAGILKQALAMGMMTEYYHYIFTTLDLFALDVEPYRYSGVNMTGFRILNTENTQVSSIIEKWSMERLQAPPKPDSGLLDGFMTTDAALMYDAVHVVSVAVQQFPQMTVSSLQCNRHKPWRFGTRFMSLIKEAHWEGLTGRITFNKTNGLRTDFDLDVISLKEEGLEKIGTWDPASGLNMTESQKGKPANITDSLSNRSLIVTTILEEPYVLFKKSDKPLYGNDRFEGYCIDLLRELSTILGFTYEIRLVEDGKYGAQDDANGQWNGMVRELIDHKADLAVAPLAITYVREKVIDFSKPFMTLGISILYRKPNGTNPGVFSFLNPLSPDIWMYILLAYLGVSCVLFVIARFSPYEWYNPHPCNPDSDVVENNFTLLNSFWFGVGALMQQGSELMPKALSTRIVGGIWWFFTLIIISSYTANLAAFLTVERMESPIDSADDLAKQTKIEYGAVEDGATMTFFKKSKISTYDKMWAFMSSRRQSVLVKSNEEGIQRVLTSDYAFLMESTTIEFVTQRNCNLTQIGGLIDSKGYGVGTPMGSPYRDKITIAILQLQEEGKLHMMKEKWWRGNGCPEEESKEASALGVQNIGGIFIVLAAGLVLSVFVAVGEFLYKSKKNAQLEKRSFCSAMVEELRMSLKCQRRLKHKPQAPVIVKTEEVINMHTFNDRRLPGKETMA
Description: as §1, §3

[10] = biological target: T7, human KA2 (Homo sapiens, UniProt Q16478); assay: as above; details: HEK293 cells stably transfected with human KA2
T7 construct: expressed in transfected cells; host or cells: HEK293
T7 sequence (Q16478 15-980): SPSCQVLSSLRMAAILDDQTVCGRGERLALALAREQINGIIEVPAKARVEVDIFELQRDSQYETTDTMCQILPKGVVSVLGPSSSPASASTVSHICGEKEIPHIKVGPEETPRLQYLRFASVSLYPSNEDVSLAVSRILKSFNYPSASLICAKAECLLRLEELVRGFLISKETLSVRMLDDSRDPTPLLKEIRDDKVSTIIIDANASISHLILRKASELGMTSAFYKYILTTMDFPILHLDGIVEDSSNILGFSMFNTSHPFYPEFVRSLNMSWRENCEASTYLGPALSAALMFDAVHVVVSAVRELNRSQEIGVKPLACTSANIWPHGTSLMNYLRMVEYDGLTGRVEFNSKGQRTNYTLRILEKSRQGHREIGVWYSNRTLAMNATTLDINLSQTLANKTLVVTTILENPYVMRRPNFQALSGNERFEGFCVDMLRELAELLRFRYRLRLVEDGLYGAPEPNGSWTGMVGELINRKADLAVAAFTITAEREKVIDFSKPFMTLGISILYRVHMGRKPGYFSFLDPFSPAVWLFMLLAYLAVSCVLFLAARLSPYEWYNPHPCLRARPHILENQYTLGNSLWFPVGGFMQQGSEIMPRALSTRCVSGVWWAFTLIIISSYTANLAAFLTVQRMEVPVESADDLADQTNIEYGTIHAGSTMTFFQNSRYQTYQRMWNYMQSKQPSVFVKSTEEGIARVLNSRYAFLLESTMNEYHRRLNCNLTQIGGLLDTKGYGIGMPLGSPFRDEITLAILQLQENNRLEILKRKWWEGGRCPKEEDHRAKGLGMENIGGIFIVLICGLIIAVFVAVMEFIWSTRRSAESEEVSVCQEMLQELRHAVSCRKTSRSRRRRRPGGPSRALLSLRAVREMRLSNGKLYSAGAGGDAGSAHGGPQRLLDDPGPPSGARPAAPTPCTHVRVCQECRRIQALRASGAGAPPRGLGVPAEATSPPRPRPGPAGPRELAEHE
Description: as §1, §3

[11] = biological target: T8, human GluR3 (Homo sapiens, UniProt P42263); assay: Electrophysiological (patch-clamp) functional studies on transfected HEK293 cells; assay type: cell-based; details: vs 100 mμ AMPA
T8 construct: expressed in transfected cells; host or cells: HEK293
Description: as §1
(§5) Functional studies were carried out on HEK293 cells stably transfected with human GluR receptors and on acutely isolated dorsal root ganglion neurons (DRG) using patch-clamp technology (Bleakman et al., 1996, Mol. Pharmacol., 49, 581-585). EC50 values (mμ) for ATPA were estimated for GluR1-4 vs 100 mμAMPA, GluR5 vs 100 mμ KA, GluR6 vs 1 mμ KA, and DRG vs 30 mμ KA, with the following results: […]

[12] = biological target: T6, human GluR6; assay: as above; assay type: cell-based; details: vs 1 mμ KA
Description: as §1, §5

[13] = biological target: T4, human GluR1; assay: as above; assay type: cell-based; details: vs 100 mμ AMPA
Description: as §1, §5

[14] = biological target: T2, human GluR4; assay: ATPA selectivity profile in binding studies, displacement of 3[H] AMPA; details: HEK293 cells stably transfected with human GluR4
Description: as §1, §4

[15] = biological target: T3, human GluR2; assay: as above; details: HEK293 cells stably transfected with human GluR2
Description: as §1, §4

T1 sequence (P39086 31-905 isoform P39086-2 limits assumed): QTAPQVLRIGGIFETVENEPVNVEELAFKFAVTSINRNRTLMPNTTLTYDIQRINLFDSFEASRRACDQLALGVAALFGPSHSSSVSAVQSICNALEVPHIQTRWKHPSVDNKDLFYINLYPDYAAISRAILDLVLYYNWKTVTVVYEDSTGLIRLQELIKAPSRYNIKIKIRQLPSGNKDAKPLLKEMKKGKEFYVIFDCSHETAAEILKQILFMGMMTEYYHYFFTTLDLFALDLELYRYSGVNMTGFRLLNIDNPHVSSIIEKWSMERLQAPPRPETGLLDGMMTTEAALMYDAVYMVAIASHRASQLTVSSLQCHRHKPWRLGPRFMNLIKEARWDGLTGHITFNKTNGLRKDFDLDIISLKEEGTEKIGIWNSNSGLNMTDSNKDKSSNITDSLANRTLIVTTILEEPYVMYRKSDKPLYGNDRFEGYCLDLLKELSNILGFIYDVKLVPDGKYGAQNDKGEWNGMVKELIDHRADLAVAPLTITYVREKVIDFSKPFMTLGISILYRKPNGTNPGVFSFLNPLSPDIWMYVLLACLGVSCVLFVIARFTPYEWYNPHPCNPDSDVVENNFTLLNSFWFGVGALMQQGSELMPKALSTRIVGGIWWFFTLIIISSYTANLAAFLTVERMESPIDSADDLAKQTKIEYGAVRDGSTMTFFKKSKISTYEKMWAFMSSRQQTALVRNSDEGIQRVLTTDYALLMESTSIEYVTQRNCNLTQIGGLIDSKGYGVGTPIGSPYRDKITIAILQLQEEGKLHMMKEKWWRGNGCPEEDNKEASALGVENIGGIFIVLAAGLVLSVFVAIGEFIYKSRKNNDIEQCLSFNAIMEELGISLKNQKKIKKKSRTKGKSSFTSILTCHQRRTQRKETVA

SMILES: CC(C)(C)c1onc(O)c1CC(N)C(=O)O (centres unmarked) [ATPA, 2-amino-3-(3-hydroxy-5-tert-butylisoxazol-4-yl)propanoic acid]
- EC50 ([1]; HEK293 cells, human GluR5, patch-clamp, vs 100 mμ KA): 4 ± 0.7 µM
- fold less potent on other human AMPA and kainate receptors than on human GluR5 and rat DRG neurons in electrophysiological studies ([1]; electrophysiological studies, GluR5 and rat DRG neurons vs other human AMPA and kainate receptors): 100 fold
- EC50 [2]: > 300 µM
- EC50 [3]: > 300 µM
- EC50 [4]: 0.56 µM
- Estimated activity (Ki) GluR1 [5]: 17.59 µM
- effect on synaptic inhibition onto CA1 pyramidal neurons [6]: reduces synaptic inhibition onto CA1 pyramidal neurons
- Estimated activity (Ki) GluR5 ([7]; HEK293 cells stably transfected with human GluR5, displacement of 3[H] kainate): 0.0031 µM
- fold less potent on other human AMPA and kainate receptors than on human GluR5 in binding studies ([7]; binding studies, GluR5 vs other human AMPA and kainate receptors): more than 1000 fold
- Estimated activity (Ki) GluR7 [8]: 14.319 µM
- Estimated activity (Ki) GluR6 [9]: > 1000 µM
- Estimated activity (Ki) KA2 [10]: 38.832 µM
- EC50 [11]: > 300 µM
- EC50 [12]: > 300 µM
- EC50 [13]: > 300 µM
- Estimated activity (Ki) GluR4 [14]: 15.747 µM
- Estimated activity (Ki) GluR2 [15]: 38.616 µM
